# Values quoted from earlier work in article PMC11728000, “Antitumor Activity and Multi-Target Mechanism of Phenolic Schiff Bases Bearing Methanesulfonamide Fragments: Cell Cycle Analysis and a Molecular Modeling Study” (International Journal of Molecular Sciences, 2024).
# Tests used:
# CCRF-CEM = tested on: CCRF-CEM; set-up: method as in https://dtp.cancer.gov/dtpstandard/dwindex/index.jsp; details: ref https://dtp.cancer.gov/dtpstandard/dwindex/index.jsp; cited from earlier work
# K-562 = tested on: K-562; set-up: method as in https://dtp.cancer.gov/dtpstandard/dwindex/index.jsp; details: ref https://dtp.cancer.gov/dtpstandard/dwindex/index.jsp; cited from earlier work
# MOLT-4 = tested on: MOLT-4; set-up: method as in https://dtp.cancer.gov/dtpstandard/dwindex/index.jsp; details: ref https://dtp.cancer.gov/dtpstandard/dwindex/index.jsp; cited from earlier work
# A549/ATCC = tested on: A549/ATCC; set-up: method as in https://dtp.cancer.gov/dtpstandard/dwindex/index.jsp; details: ref https://dtp.cancer.gov/dtpstandard/dwindex/index.jsp; cited from earlier work
# EKVX = tested on: EKVX; set-up: method as in https://dtp.cancer.gov/dtpstandard/dwindex/index.jsp; details: ref https://dtp.cancer.gov/dtpstandard/dwindex/index.jsp; cited from earlier work
# HOP-62 = tested on: HOP-62; set-up: method as in https://dtp.cancer.gov/dtpstandard/dwindex/index.jsp; details: ref https://dtp.cancer.gov/dtpstandard/dwindex/index.jsp; cited from earlier work
# NCI-H23 = tested on: NCI-H23; set-up: method as in https://dtp.cancer.gov/dtpstandard/dwindex/index.jsp; details: ref https://dtp.cancer.gov/dtpstandard/dwindex/index.jsp; cited from earlier work
# NCI-H322M = tested on: NCI-H322M; set-up: method as in https://dtp.cancer.gov/dtpstandard/dwindex/index.jsp; details: ref https://dtp.cancer.gov/dtpstandard/dwindex/index.jsp; cited from earlier work
# KM12 = tested on: KM12; set-up: method as in https://dtp.cancer.gov/dtpstandard/dwindex/index.jsp; details: ref https://dtp.cancer.gov/dtpstandard/dwindex/index.jsp; cited from earlier work
# SW-620 = tested on: SW-620; set-up: method as in https://dtp.cancer.gov/dtpstandard/dwindex/index.jsp; details: ref https://dtp.cancer.gov/dtpstandard/dwindex/index.jsp; cited from earlier work
# SF-268 = tested on: SF-268; set-up: method as in https://dtp.cancer.gov/dtpstandard/dwindex/index.jsp; details: ref https://dtp.cancer.gov/dtpstandard/dwindex/index.jsp; cited from earlier work
# SF-539 = tested on: SF-539; set-up: method as in https://dtp.cancer.gov/dtpstandard/dwindex/index.jsp; details: ref https://dtp.cancer.gov/dtpstandard/dwindex/index.jsp; cited from earlier work
# SNB-19 = tested on: SNB-19; set-up: method as in https://dtp.cancer.gov/dtpstandard/dwindex/index.jsp; details: ref https://dtp.cancer.gov/dtpstandard/dwindex/index.jsp; cited from earlier work
# MALME-3M = tested on: MALME-3M; set-up: method as in https://dtp.cancer.gov/dtpstandard/dwindex/index.jsp; details: ref https://dtp.cancer.gov/dtpstandard/dwindex/index.jsp; cited from earlier work
# MDA-MB-435 = tested on: MDA-MB-435; set-up: method as in https://dtp.cancer.gov/dtpstandard/dwindex/index.jsp; details: ref https://dtp.cancer.gov/dtpstandard/dwindex/index.jsp; cited from earlier work
# UACC-257 = tested on: UACC-257; set-up: method as in https://dtp.cancer.gov/dtpstandard/dwindex/index.jsp; details: ref https://dtp.cancer.gov/dtpstandard/dwindex/index.jsp; cited from earlier work
# UACC-62 = tested on: UACC-62; set-up: method as in https://dtp.cancer.gov/dtpstandard/dwindex/index.jsp; details: ref https://dtp.cancer.gov/dtpstandard/dwindex/index.jsp; cited from earlier work
# IGROV1 = tested on: IGROV1; set-up: method as in https://dtp.cancer.gov/dtpstandard/dwindex/index.jsp; details: ref https://dtp.cancer.gov/dtpstandard/dwindex/index.jsp; cited from earlier work
# OVCAR-4 = tested on: OVCAR-4; set-up: method as in https://dtp.cancer.gov/dtpstandard/dwindex/index.jsp; details: ref https://dtp.cancer.gov/dtpstandard/dwindex/index.jsp; cited from earlier work
# SK-OV-3 = tested on: SK-OV-3; set-up: method as in https://dtp.cancer.gov/dtpstandard/dwindex/index.jsp; details: ref https://dtp.cancer.gov/dtpstandard/dwindex/index.jsp; cited from earlier work
# 786-0 = tested on: 786-0; set-up: method as in https://dtp.cancer.gov/dtpstandard/dwindex/index.jsp; details: ref https://dtp.cancer.gov/dtpstandard/dwindex/index.jsp; cited from earlier work
# A498 = tested on: A498; set-up: method as in https://dtp.cancer.gov/dtpstandard/dwindex/index.jsp; details: ref https://dtp.cancer.gov/dtpstandard/dwindex/index.jsp; cited from earlier work
# CAKI-1 = tested on: CAKI-1; set-up: method as in https://dtp.cancer.gov/dtpstandard/dwindex/index.jsp; details: ref https://dtp.cancer.gov/dtpstandard/dwindex/index.jsp; cited from earlier work
# SN12C = tested on: SN12C; set-up: method as in https://dtp.cancer.gov/dtpstandard/dwindex/index.jsp; details: ref https://dtp.cancer.gov/dtpstandard/dwindex/index.jsp; cited from earlier work
# TK-10 = tested on: TK-10; set-up: method as in https://dtp.cancer.gov/dtpstandard/dwindex/index.jsp; details: ref https://dtp.cancer.gov/dtpstandard/dwindex/index.jsp; cited from earlier work
# UO-31 = tested on: UO-31; set-up: method as in https://dtp.cancer.gov/dtpstandard/dwindex/index.jsp; details: ref https://dtp.cancer.gov/dtpstandard/dwindex/index.jsp; cited from earlier work
# DU-145 = tested on: DU-145; set-up: method as in https://dtp.cancer.gov/dtpstandard/dwindex/index.jsp; details: ref https://dtp.cancer.gov/dtpstandard/dwindex/index.jsp; cited from earlier work
# MDA-MB-231/ATCC = tested on: MDA-MB-231/ATCC; set-up: method as in https://dtp.cancer.gov/dtpstandard/dwindex/index.jsp; details: ref https://dtp.cancer.gov/dtpstandard/dwindex/index.jsp; cited from earlier work
# T-47D = tested on: T-47D; set-up: method as in https://dtp.cancer.gov/dtpstandard/dwindex/index.jsp; details: ref https://dtp.cancer.gov/dtpstandard/dwindex/index.jsp; cited from earlier work
# [1] = tested on: NSC Lung Cancer subpanel tumor cell lines; details: cited from earlier work; for GI50: read-out: GI50, subpanel average, ref https://dtp.cancer.gov/dtpstandard/dwindex/index.jsp; for CC50: read-out: LC50, subpanel average, ref https://dtp.cancer.gov/dtpstandard/dwindex/index.jsp; for TGI, subpanel average: ref https://dtp.cancer.gov/dtpstandard/dwindex/index.jsp
# [2] = tested on: Colon Cancer subpanel tumor cell lines; details: cited from earlier work; for GI50: read-out: GI50, subpanel average, ref https://dtp.cancer.gov/dtpstandard/dwindex/index.jsp; for CC50: read-out: LC50, subpanel average, ref https://dtp.cancer.gov/dtpstandard/dwindex/index.jsp; for TGI, subpanel average: ref https://dtp.cancer.gov/dtpstandard/dwindex/index.jsp
# [3] = tested on: CNS Cancer subpanel tumor cell lines; details: cited from earlier work; for GI50: read-out: GI50, subpanel average, ref https://dtp.cancer.gov/dtpstandard/dwindex/index.jsp; for CC50: read-out: LC50, subpanel average, ref https://dtp.cancer.gov/dtpstandard/dwindex/index.jsp; for TGI, subpanel average: ref https://dtp.cancer.gov/dtpstandard/dwindex/index.jsp
# [4] = tested on: Melanoma subpanel tumor cell lines; details: cited from earlier work; for GI50: read-out: GI50, subpanel average, ref https://dtp.cancer.gov/dtpstandard/dwindex/index.jsp; for CC50: read-out: LC50, subpanel average, ref https://dtp.cancer.gov/dtpstandard/dwindex/index.jsp; for TGI, subpanel average: ref https://dtp.cancer.gov/dtpstandard/dwindex/index.jsp
# [5] = tested on: Prostate Cancer subpanel tumor cell lines; details: cited from earlier work; for GI50: read-out: GI50, subpanel average, ref https://dtp.cancer.gov/dtpstandard/dwindex/index.jsp; for CC50: read-out: LC50, subpanel average, ref https://dtp.cancer.gov/dtpstandard/dwindex/index.jsp; for TGI, subpanel average: ref https://dtp.cancer.gov/dtpstandard/dwindex/index.jsp
# [6] = tested on: Breast Cancer subpanel tumor cell lines; details: cited from earlier work; for GI50: read-out: GI50, subpanel average, ref https://dtp.cancer.gov/dtpstandard/dwindex/index.jsp; for TGI, subpanel average: ref https://dtp.cancer.gov/dtpstandard/dwindex/index.jsp
# [7] = tested on: 59 human cancer cell lines; details: full panel mean-graph midpoint, ref https://dtp.cancer.gov/dtpstandard/dwindex/index.jsp, cited from earlier work; for GI50: read-out: GI50 MG-MID; for CC50: read-out: LC50 MG-MID
# NCI-H522 = tested on: NCI-H522; set-up: method as in https://dtp.cancer.gov/dtpstandard/dwindex/index.jsp; details: ref https://dtp.cancer.gov/dtpstandard/dwindex/index.jsp; cited from earlier work
# MDA-MB-468 = tested on: MDA-MB-468; set-up: method as in https://dtp.cancer.gov/dtpstandard/dwindex/index.jsp; details: ref https://dtp.cancer.gov/dtpstandard/dwindex/index.jsp; cited from earlier work
smiles,measurement,setting,value
"Cc1ccc(-c2cc(C(F)(F)F)nn2-c2ccc(S(N)(=O)=O)cc2)cc1 [Celecoxib, celecoxib]",GI50,CCRF-CEM,12.6 µM
same,GI50,K-562,10 µM
same,GI50,MOLT-4,15.8 µM
same,GI50,A549/ATCC,15.8 µM
same,GI50,EKVX,19.9 µM
same,GI50,HOP-62,63.1 µM
same,GI50,NCI-H23,15.8 µM
same,GI50,NCI-H322M,19.9 µM
same,GI50,KM12,15.8 µM
same,GI50,SW-620,15.8 µM
same,GI50,SF-268,15.8 µM
same,GI50,SF-539,19.9 µM
same,GI50,SNB-19,19.9 µM
same,GI50,MALME-3M,19.9 µM
same,GI50,MDA-MB-435,15.8 µM
same,GI50,UACC-257,19.9 µM
same,GI50,UACC-62,15.8 µM
same,GI50,IGROV1,15.8 µM
same,GI50,OVCAR-4,12.6 µM
same,GI50,SK-OV-3,19.9 µM
same,GI50,786-0,39.8 µM
same,GI50,A498,15.8 µM
same,GI50,CAKI-1,19.9 µM
same,GI50,SN12C,15.8 µM
same,GI50,TK-10,19.9 µM
same,GI50,UO-31,15.8 µM
same,GI50,DU-145,15.8 µM
same,GI50,MDA-MB-231/ATCC,15.8 µM
same,GI50,T-47D,15.8 µM
same,GI50,[1],25.1 µM
same,CC50,[1],67.1 µM
same,"TGI, subpanel average",[1],41.93 µM
same,GI50,[2],20.7 µM
same,CC50,[2],66.5 µM
same,"TGI, subpanel average",[2],41.39 µM
same,GI50,[3],17.2 µM
same,CC50,[3],58.8 µM
same,"TGI, subpanel average",[3],31.62 µM
same,GI50,[4],22.5 µM
same,CC50,[4],64.3 µM
same,"TGI, subpanel average",[4],38.49 µM
same,GI50,[5],14.2 µM
same,CC50,[5],57 µM
same,"TGI, subpanel average",[5],28.37 µM
same,GI50,[6],17.5 µM
same,"TGI, subpanel average",[6],34.89 µM
same,TGI MG-MID,[7],34.0 µM
same,GI50,[7],17.5 µM
same,CC50,[7],63.3 µM
"COc1cc2ncnc(Nc3ccc(F)c(Cl)c3)c2cc1OCCCN1CCOCC1 [Gefitinib, gefitinib]",GI50,CCRF-CEM,0.398 µM
same,GI50,K-562,2.51 µM
same,GI50,MOLT-4,2 µM
same,GI50,A549/ATCC,2.51 µM
same,GI50,HOP-62,3.16 µM
same,GI50,NCI-H23,2.51 µM
same,GI50,NCI-H322M,0.063 µM
same,GI50,NCI-H522,1 µM
same,GI50,KM12,10 µM
same,GI50,SF-268,2.51 µM
same,GI50,SF-539,10 µM
same,GI50,SNB-19,3.16 µM
same,GI50,MALME-3M,3.98 µM
same,GI50,MDA-MB-435,3.16 µM
same,GI50,UACC-257,2.51 µM
same,GI50,UACC-62,2 µM
same,GI50,IGROV1,3.16 µM
same,GI50,SK-OV-3,1 µM
same,GI50,786-0,3.16 µM
same,GI50,SN12C,1.26 µM
same,GI50,TK-10,0.794 µM
same,GI50,UO-31,1.58 µM
same,GI50,DU-145,1.58 µM
same,GI50,MDA-MB-231/ATCC,3.98 µM
same,GI50,T-47D,7.94 µM
same,GI50,MDA-MB-468,0.0126 µM
same,GI50,[1],2.05 µM
same,"TGI, subpanel average",[1],13.86 µM
same,GI50,[2],5.23 µM
same,"TGI, subpanel average",[2],18.47 µM
same,GI50,[3],5.64 µM
same,"TGI, subpanel average",[3],19.62 µM
same,GI50,[4],3.68 µM
same,"TGI, subpanel average",[4],12.49 µM
same,GI50,[5],3.29 µM
same,"TGI, subpanel average",[5],31.62 µM
same,GI50,[6],4.67 µM
same,"TGI, subpanel average",[6],18.62 µM
same,TGI MG-MID,[7],14.3 µM
same,GI50,[7],2.1 µM
"CNC(=O)c1cc(Oc2ccc(NC(=O)Nc3ccc(Cl)c(C(F)(F)F)c3)cc2)ccn1 [Sorafenib, sorafenib]",GI50,CCRF-CEM,1.99 µM
same,GI50,K-562,3.16 µM
same,GI50,MOLT-4,3.16 µM
same,GI50,A549/ATCC,3.16 µM
same,GI50,EKVX,2.51 µM
same,GI50,HOP-62,1.99 µM
same,GI50,NCI-H23,1.99 µM
same,GI50,NCI-H322M,2.51 µM
same,GI50,NCI-H522,1.99 µM
same,GI50,SW-620,2.51 µM
same,GI50,SF-268,2.51 µM
same,GI50,SNB-19,3.16 µM
same,GI50,MALME-3M,1.99 µM
same,GI50,UACC-257,1.99 µM
same,GI50,IGROV1,2.51 µM
same,GI50,OVCAR-4,3.16 µM
same,GI50,SK-OV-3,2.51 µM
same,GI50,786-0,3.16 µM
same,GI50,A498,2.51 µM
same,GI50,CAKI-1,3.16 µM
same,GI50,SN12C,2.51 µM
same,GI50,TK-10,3.98 µM
same,GI50,UO-31,2.51 µM
same,GI50,DU-145,3.16 µM
same,GI50,MDA-MB-231/ATCC,1.26 µM
same,GI50,MDA-MB-468,1.99 µM
same,CC50,[1],49.1 µM
same,"TGI, subpanel average",[1],7.99 µM
same,GI50,[2],2.19 µM
same,CC50,[2],38.1 µM
same,"TGI, subpanel average",[2],7.94 µM
same,GI50,[3],2.33 µM
same,CC50,[3],27.8 µM
same,"TGI, subpanel average",[3],7.64 µM
same,GI50,[4],1.87 µM
same,CC50,[4],28.6 µM
same,"TGI, subpanel average",[4],6.29 µM
same,GI50,[5],2.58 µM
same,CC50,[5],69.9 µM
same,"TGI, subpanel average",[5],10.27 µM
same,CC50,"[6]; read-out: LC50, subpanel average, ref https://dtp.cancer.gov/dtpstandard/dwindex/index.jsp",57.3 µM
same,"TGI, subpanel average",[6],9.35 µM
same,TGI MG-MID,[7],9.11 µM
same,GI50,[7],2.33 µM
same,CC50,[7],43.1 µM
